From PubChem BioAssay AID1918993 (Molecular Pharmacology Branch, DTP, NCI, 2023)
pIC50: −log10 of the molar value.

Test system: 233499-124-R-J3-PDC complex spheroid growth
Test: Anticancer human tumor 233499-124-R-J3-PDC patient-derived colon adenocarcinoma cell line growth inhibition [AhR]
Details: for pIC50: curve of first compound; for viability, T/C: stronger effect = lower value
Summary of the method: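 Agents were dosed in half-log steps down from roughly clinical Cmax, or from 10 microM where Cmax was unknown, alone and with AhR antagonists. Read-out: percent test/control growth of tumor spheroids containing HUVEC and MSC stromal cells.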

[1] = second compound 0.1 µM, first compound 0.00316 µM
[2] = second compound 0.1 µM, first compound 0.01 µM
[3] = second compound 0.1 µM, first compound 0.0316 µM
[4] = second compound 0.1 µM, first compound 0.1 µM
[5] = second compound 0.316 µM, first compound 0.00316 µM
[6] = second compound 0.316 µM, first compound 0.01 µM
[7] = second compound 0.316 µM, first compound 0.0316 µM
[8] = second compound 0.316 µM, first compound 0.1 µM
[9] = second compound 1 µM, first compound 0.00316 µM
[10] = second compound 1 µM, first compound 0.01 µM
[11] = second compound 1 µM, first compound 0.0316 µM
[12] = second compound 1 µM, first compound 0.1 µM
[13] = second compound 3.16 µM, first compound 0.00316 µM
[14] = second compound 3.16 µM, first compound 0.01 µM
[15] = second compound 3.16 µM, first compound 0.0316 µM
[16] = second compound 3.16 µM, first compound 0.1 µM
[17] = second compound 10 µM, first compound 0.00316 µM
[18] = second compound 10 µM, first compound 0.01 µM
[19] = second compound 10 µM, first compound 0.0316 µM
[20] = second compound 10 µM, first compound 0.1 µM
[21] = second compound 0.1 µM, first compound 0.316 µM
[22] = second compound 0.1 µM, first compound 1 µM
[23] = second compound 0.1 µM, first compound 3.16 µM
[24] = second compound 0.1 µM, first compound 10 µM
[25] = second compound 0.316 µM, first compound 0.316 µM
[26] = second compound 0.316 µM, first compound 1 µM
[27] = second compound 0.316 µM, first compound 3.16 µM
[28] = second compound 0.316 µM, first compound 10 µM
[29] = second compound 1 µM, first compound 0.316 µM
[30] = second compound 1 µM, first compound 1 µM
[31] = second compound 1 µM, first compound 3.16 µM
[32] = second compound 1 µM, first compound 10 µM
[33] = second compound 3.16 µM, first compound 0.316 µM
[34] = second compound 3.16 µM, first compound 1 µM
[35] = second compound 3.16 µM, first compound 3.16 µM
[36] = second compound 3.16 µM, first compound 10 µM
[37] = second compound 10 µM, first compound 0.316 µM
[38] = second compound 10 µM, first compound 1 µM
[39] = second compound 10 µM, first compound 3.16 µM
[40] = second compound 10 µM, first compound 10 µM
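Further: spheroids exposed to agents for seven days before reading.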

Structure (SMILES) | pIC50 (second compound 0.1 µM) | pIC50 (second compound 0.316 µM) | pIC50 (second compound 1 µM) | pIC50 (second compound 3.16 µM) | pIC50 (second compound 10 µM) | viability, T/C [3] [%] | viability, T/C [4] [%] | viability, T/C [7] [%] | viability, T/C [8] [%] | viability, T/C [11] [%] | viability, T/C [12] [%] | viability, T/C [15] [%] | viability, T/C [16] [%] | viability, T/C [19] [%] | viability, T/C [20] [%] | viability, T/C [21] [%] | viability, T/C [22] [%] | viability, T/C [25] [%] | viability, T/C [26] [%] | viability, T/C [29] [%] | other results
CC[C@@]1(O)C(=O)OCc2c1cc1n(c2=O)Cc2cc3c(CN(C)C)c(O)ccc3nc2-1 + Cc1cncc(-c2nc(NCCc3c[nH]c4ccccc34)c3ncn(C(C)C)c3n2)c1 | < 7.00 | < 7.00 | < 7.00 | < 7.00 | > 9.50 | 97.6 | 92.6 | 101 | 69.6 | 85.2 | 68 | 83.3 | 63.2 | 12.9 | 16.9 | – | – | – | – | – | viability, T/C (second compound 0.1 µM, first compound 0.000316 µM): 101%; viability, T/C (second compound 0.1 µM, first compound 0.001 µM): 94.2%; viability, T/C [1]: 92.1%; viability, T/C [2]: 94.6%; viability, T/C (second compound 0.316 µM, first compound 0.000316 µM): 92.1%; viability, T/C (second compound 0.316 µM, first compound 0.001 µM): 82.3%; viability, T/C [5]: 84.4%; viability, T/C [6]: 78.5%; viability, T/C (second compound 1 µM, first compound 0.000316 µM): 84.1%; viability, T/C (second compound 1 µM, first compound 0.001 µM): 76%; viability, T/C [9]: 77.8%; viability, T/C [10]: 70.3%; viability, T/C (second compound 3.16 µM, first compound 0.000316 µM): 87.8%; viability, T/C (second compound 3.16 µM, first compound 0.001 µM): 71.5%; viability, T/C [13]: 91%; viability, T/C [14]: 88.6%; viability, T/C (second compound 10 µM, first compound 0.000316 µM): 8.54%; viability, T/C (second compound 10 µM, first compound 0.001 µM): 8.37%; viability, T/C [17]: 34.9%; viability, T/C [18]: 24%
COc1cc(C2c3cc4c(cc3C(OC3OC5COC(C)OC5C(O)C3O)C3COC(=O)C23)OCO4)cc(OC)c1O (stereo not given) + Cc1cncc(-c2nc(NCCc3c[nH]c4ccccc34)c3ncn(C(C)C)c3n2)c1 | < 5.00 | < 5.00 | < 5.00 | < 5.00 | > 7.50 | 92.6 | 101 | 91.7 | 89.8 | 77.5 | 84.4 | 78.9 | 79.5 | 9.81 | 11.9 | 109 | 95.4 | 86 | 81.6 | 77.3 | viability, T/C [23]: 98.6%; viability, T/C [24]: 92.9%; viability, T/C [27]: 83.9%; viability, T/C [28]: 88.5%; viability, T/C [30]: 88%; viability, T/C [31]: 79.8%; viability, T/C [32]: 69.9%; viability, T/C [33]: 77.4%; viability, T/C [34]: 73%; viability, T/C [35]: 74.1%; viability, T/C [36]: 55.9%; viability, T/C [37]: 30.9%; viability, T/C [38]: 30.1%; viability, T/C [39]: 22.2%; viability, T/C [40]: 9.08%
COc1cccc2c1C(=O)c1c(O)c3c(c(O)c1C2=O)CC(O)(C(=O)CO)CC3OC1CC(N)C(O)C(C)O1 (stereo not given) + Cc1cncc(-c2nc(NCCc3c[nH]c4ccccc34)c3ncn(C(C)C)c3n2)c1 | 5.07 | < 5.00 | 5.56 | 5.87 | > 7.50 | 102 | 84.1 | 73.8 | 90.8 | 87.4 | 72.8 | 81.8 | 87.1 | 7.64 | 13.7 | 80.3 | 83.2 | 79.8 | 78 | 76.9 | viability, T/C [23]: 49.3%; viability, T/C [24]: 51.2%; viability, T/C [27]: 61.3%; viability, T/C [28]: 50.6%; viability, T/C [30]: 71%; viability, T/C [31]: 46.9%; viability, T/C [32]: 32.5%; viability, T/C [33]: 77.5%; viability, T/C [34]: 60.8%; viability, T/C [35]: 21.3%; viability, T/C [36]: 4.5%; viability, T/C [37]: 41%; viability, T/C [38]: 13.4%; viability, T/C [39]: 14.4%; viability, T/C [40]: 0.5%
Nc1ccn(C2OC(CO)C(O)C2(F)F)c(=O)n1 (stereo not given) + Cc1cncc(-c2nc(NCCc3c[nH]c4ccccc34)c3ncn(C(C)C)c3n2)c1 | 5.75 | 6.11 | < 5.00 | 5.53 | < 5.00 | 95.4 | 72 | 76.5 | 82.7 | 84.8 | 81.7 | 74.5 | 75.2 | 52.6 | 44.9 | 71.8 | 50.5 | 68 | 45.4 | 64 | viability, T/C [23]: 41.4%; viability, T/C [24]: 47.2%; viability, T/C [27]: 40.1%; viability, T/C [28]: 45.9%; viability, T/C [30]: 57.6%; viability, T/C [31]: 43.9%; viability, T/C [32]: 61.9%; viability, T/C [33]: 69.2%; viability, T/C [34]: 60.1%; viability, T/C [35]: 38.6%; viability, T/C [36]: 60.2%; viability, T/C [37]: 56%; viability, T/C [38]: 47.3%; viability, T/C [39]: 53%; viability, T/C [40]: 51.9%
Nc1ncn(C2CC(O)C(CO)O2)c(=O)n1 (stereo not given) + Cc1cncc(-c2nc(NCCc3c[nH]c4ccccc34)c3ncn(C(C)C)c3n2)c1 | < 6.00 | < 6.00 | < 6.00 | < 6.00 | > 8.50 | 91.3 | 88 | 84.6 | 84 | 86.8 | 81 | 82.4 | 81 | 36.8 | 44.8 | 87.8 | 81.2 | 87.4 | 96.9 | 82.9 | viability, T/C [1]: 97.4%; viability, T/C [2]: 85%; viability, T/C [5]: 88.8%; viability, T/C [6]: 89.8%; viability, T/C [9]: 82.9%; viability, T/C [10]: 83.9%; viability, T/C [30]: 93.4%; viability, T/C [13]: 82.7%; viability, T/C [14]: 76.2%; viability, T/C [33]: 76.5%; viability, T/C [34]: 88.6%; viability, T/C [17]: 16.3%; viability, T/C [18]: 26.8%; viability, T/C [37]: 21.5%; viability, T/C [38]: 26.4%
